We go through 29 molecules from ChEMBL document CHEMBL1134802, “Biphenyls as surrogates of the steroidal backbone. Part 1: synthesis and estrogen receptor affinity of an original series of polysubstituted biphenyls” (Bioorg Med Chem Lett, 2001).

For one assay, the target named is T1, Estrogen receptor (Homo sapiens) (UniProt P03372).
T1 sequence (whole entry): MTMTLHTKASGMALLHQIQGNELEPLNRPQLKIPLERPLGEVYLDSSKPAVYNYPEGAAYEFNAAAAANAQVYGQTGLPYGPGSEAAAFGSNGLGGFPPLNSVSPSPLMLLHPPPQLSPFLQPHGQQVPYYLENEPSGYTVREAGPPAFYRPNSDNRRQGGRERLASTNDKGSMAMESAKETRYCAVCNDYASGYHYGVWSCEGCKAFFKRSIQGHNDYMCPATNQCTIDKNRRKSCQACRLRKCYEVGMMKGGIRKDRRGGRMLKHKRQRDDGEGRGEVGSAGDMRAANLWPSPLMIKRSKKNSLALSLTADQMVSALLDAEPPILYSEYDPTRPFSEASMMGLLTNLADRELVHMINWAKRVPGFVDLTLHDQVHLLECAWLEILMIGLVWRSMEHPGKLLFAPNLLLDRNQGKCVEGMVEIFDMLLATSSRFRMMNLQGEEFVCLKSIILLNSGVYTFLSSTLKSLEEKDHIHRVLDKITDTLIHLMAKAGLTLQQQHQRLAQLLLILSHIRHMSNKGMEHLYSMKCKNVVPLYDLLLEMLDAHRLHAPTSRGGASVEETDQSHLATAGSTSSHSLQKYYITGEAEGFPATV
In words: Binding affinity for human estrogen receptor alpha after 24 hr r at 0C.
In turn, `OCc1cc(Br)c(-c2ccc(O)cc2)c(Br)c1` returned an Activity of 106%.

A further assay deals with T1, Estrogen receptor (Homo sapiens). In words: Binding affinity for human estrogen receptor alpha after 3 hr at 0C.
`OCc1cc(Br)c(-c2ccc(O)cc2)c(Br)c1` returned an Activity of 425%.
As to `OCc1cc(Cl)c(-c2ccc(O)cc2)c(Cl)c1`, the Activity came to 104%.
As for `OCc1ccc(-c2ccc(O)cc2)c(C(F)(F)F)c1`, the Activity stood at 33%.
On to `O=[N+]([O-])c1cc(CO)cc([N+](=O)[O-])c1-c1ccc(O)cc1`, for which the Activity was 24%.

The target is the same in a further assay. In words: Receptor binding affinity (RBA) to human recombinant estrogen receptor alpha (REH) after 24 hours at 0 degree Centigrade.
As for `CC(C)c1cc(CO)cc(Cl)c1-c1ccc(O)cc1`, the Activity was 22%.
Same read-out and setting: in the case of `OCc1cc(Cl)c(-c2ccc(O)cc2)c(C(F)(F)F)c1` it was 50%; in that of `Cc1cc(O)cc(C)c1-c1ccc(CO)cc1`, 0.06%; in that of `OCc1cc(Br)c(-c2ccc(O)cc2)c(I)c1`, 41%.
The same measure, in the same setting: next, `OCc1cc(Cl)c(-c2ccc(O)cc2)c(-c2ccc(O)cc2)c1`: 1%; `OCc1ccc(-c2ccc(O)cc2)c(-c2ccc(O)cc2)c1`: 1%.
On the same count and under the same terms, next, `COc1cc(CO)cc(Cl)c1-c1ccc(O)cc1`: 2.5%; `Nc1cc(CO)cc([N+](=O)[O-])c1-c1ccc(O)cc1`: 0.03%; `OCc1cc(Cl)c(-c2ccc(O)cc2)c(Cl)c1`: 34%.
Regarding `OCc1cc(F)c(-c2ccc(O)cc2)c(F)c1`, the Activity was 0.93%.
On the same count and under the same terms, next, `OCc1ccc(-c2ccc(O)cc2)c(C(F)(F)F)c1`: 9.5%; `OCc1ccc(-c2c(Cl)c(Cl)c(O)c(Cl)c2Cl)cc1`: 0%; `OCc1ccc(-c2c(Cl)cc(O)cc2Cl)cc1`: 0.4%.
On to `OCc1ccc(-c2ccc(O)cc2)c(Cl)c1`, for which the Activity was determined as 2%.
On the same count and under the same terms, next, `O=[N+]([O-])c1cc(CO)cc([N+](=O)[O-])c1-c1ccc(O)cc1`: 5%; `Cc1cc(-c2ccc(CO)cc2)cc(C)c1O`: 0%; `O=[N+]([O-])c1cc(CO)cc(Br)c1-c1ccc(O)cc1`: 34%.
On the same count and under the same terms, in the case of `COc1cc(CO)cc(OC)c1-c1ccc(O)cc1` it was 0.24%; in that of `OCc1cc(Cl)c(-c2ccc(O)c(Cc3ccccc3)c2)c(Cl)c1`, 0.07%.
Still for that read-out and setting: in the case of `Cc1cc(CO)cc(C)c1-c1ccc(O)cc1` it was 0.8%; in that of `CN(C)C#Cc1cc(CO)cc(Br)c1-c1ccc(O)cc1`, 0.2%.
As for `CSc1cc(CO)cc(Br)c1-c1ccc(O)cc1`, the Activity is 4.5%.
Same read-out and setting: next, `OCc1cc(Br)c(-c2ccc(O)cc2)c(-n2cccc2)c1`: 2%; `OCc1ccc(-c2ccc(O)cc2Cl)cc1`: 0.03%; `Nc1cc(CO)cc(Br)c1-c1ccc(O)cc1`: 0.03%.
Same read-out and setting: next, `OCc1c(Cl)c(Cl)c(-c2ccc(O)cc2)c(Cl)c1Cl`: 5.4%; `OCc1cc(Cl)c(-c2ccc(O)cc2Cl)c(Cl)c1`: 21%; `OCc1ccc(-c2cc(Br)c(O)c(Br)c2)cc1`: 0%.
